Experimental data published in article PMC4594013 (Frontiers in Pharmacology, 2015).
Several values for one entry are separate records, joined by “and”; a condition that tells them apart may be missing. Identical values can stand only once. Counter-ions that a name gives are not always drawn. Like-named read-outs stand apart in the source and are kept apart here.

Assays:
OAT2-tv3 = test system: OAT2-tv3; parameters: method as in Sato et al., 2010; conditions: OAT2-tv3 in HEK293 cells; ref Sato et al., 2010; cited from earlier work
OAT2-tv1 [1] = target: T1, OAT2-tv1 (Homo sapiens, UniProt Q9Y694); assay: Inhibition of [3H]penciclovir uptake into CHO-OAT2-tv1 cells; format: cell-based; conditions: 5 min; for IC50 / % Inhibition: room temperature; for % Inhibition: inhibition of [3H]penciclovir uptake by CHO-OAT2-tv1 cells at the maximum concentration of test compound (Table 2, c1); for cis-inhibition of penciclovir uptake: CHO-OAT2-tv1 cells, test compound 1 mM, [3H]penciclovir ∼30 nM
T1 sequence (Q9Y694 1-546 isoform Q9Y694-2): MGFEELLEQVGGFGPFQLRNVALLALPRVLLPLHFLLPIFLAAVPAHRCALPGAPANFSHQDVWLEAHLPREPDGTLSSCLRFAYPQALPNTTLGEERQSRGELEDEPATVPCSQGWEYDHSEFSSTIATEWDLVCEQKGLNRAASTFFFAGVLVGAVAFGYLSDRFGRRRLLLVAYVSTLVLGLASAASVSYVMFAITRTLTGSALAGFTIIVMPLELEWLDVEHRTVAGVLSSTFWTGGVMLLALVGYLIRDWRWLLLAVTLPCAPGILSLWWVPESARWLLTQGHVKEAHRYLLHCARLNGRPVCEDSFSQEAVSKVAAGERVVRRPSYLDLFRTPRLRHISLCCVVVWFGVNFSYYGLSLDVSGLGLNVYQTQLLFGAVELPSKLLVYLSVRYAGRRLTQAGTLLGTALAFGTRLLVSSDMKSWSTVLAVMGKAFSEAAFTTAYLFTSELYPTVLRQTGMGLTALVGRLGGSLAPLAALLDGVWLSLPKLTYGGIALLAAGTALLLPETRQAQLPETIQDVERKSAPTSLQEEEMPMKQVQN
Description: (§1) All experiments examining cellular radiolabeled compound uptake were conducted using cells grown to confluence in 24-well flat bottom plates. The transport solution consisted of WB (room temperature) containing radiolabeled compound and the uptake period for all experiments was at an initial rate time point of 5 min. [^3H]Penciclovir served as the probe OAT2 substrate. We also examined the uptake of [^3H]para-aminohippurate, [^3H]estrone-3-sulfate, [^14C]glutarate, [^14C]succinate, [^3H]paclitaxel, and [^3H]dehydroepiandrosterone sulfate by OAT2 since published studies indicate that they are substrates of the transport protein ([Sun et al., 2001]; [Kobayashi et al., 2005a]). […] For all cellular uptake experiments, the medium was aspirated and the cells were rinsed once with WB (0.3 ml). Following the uptake period, cells were washed three times with ice-cold WB (0.5 ml each wash). After aspirating the final wash the cells were lysed in 0.5 N NaOH/1% SDS (0.4 ml) for ∼30 min on an orbital shaker. 1 N HCl (0.2 ml) was then added to neutralize the NaOH, and the cell lysates (0.5 ml) were transferred to scintillation vials containing liquid scintillation cocktail (CytoScint ES, MP Biomedicals). Cellular radioactivity content was determined with a Beckman LS6500 liquid scintillation counter. Protein content was determined using the bicinchoninic acid method. See the Figure and Table Legends for additional details describing the experimental conditions used.
The concentration of each Kreb’s cycle intermediate was 1 mM. Uptake was conducted for 5 min.

OAT2-tv1 [2] = target: T1, OAT2-tv1; conditions: cited from earlier work
[3] = test system: OAT2 with an unidentified sequence; conditions: cited from earlier work
OAT2-tv1 [4] = target: T1, OAT2-tv1; assay: Cellular uptake of radiolabeled compounds by CHO, HEK or MDCK cells stably expressing OAT2-tv1; conditions: for uptake compared to respective parental cells: CHO-, HEK- and MDCK-OAT2-tv1 cells, para-aminohippurate 8 nM, estrone-3-sulfate 10 nM, glutarate 18 μM
Description: as §1
FIGURE 2 Cellular accumulation of [^3H]penciclovir (A), [^3H]para-aminohippurate (B), [^3H]estrone-3-sulfate (C), or [^14C]glutarate (D) by parental CHO, HEK, or MDCK cells, or CHO, HEK, or MDCK cells stably expressing either OAT2-tv1 or OAT2-tv2. The concentration of [^3H]penciclovir in the transport solution was 0.1 μM for CHO and MDCK cell experiments, and 0.5 μM for HEK cell experiments. The concentrations of [^3H]para-aminohippurate, [^3H]estrone-3-sulfate and [^14C]glutarate were 8 nM, 10 nM, and 18 μM, respectively. Uptake was conducted for 5 min at room temperature.
FIGURE 4 Cellular accumulation of [^14C]succinate (18.5 μM) by CHO parental cells, CHO-OAT2-tv1 cells or CHO cells stably expressing the Na-dicarboxylate cotransporter 3 (NaDC3). Uptake was conducted for 5 min. Values are the mean ± standard error of the mean of four experiments for CHO parental and CHO-OAT2-tv1 cells. A single uptake experiment was performed with CHO-NaDC3 cells.

OAT2-tv2 [5] = target: T2, OAT2-tv2 (Homo sapiens, UniProt Q9Y694); assay: Cellular uptake of radiolabeled compounds by CHO, HEK or MDCK cells stably expressing OAT2-tv2; format: cell-based; parameters: The open reading frame of the human ortholog of OAT2 transcript variant 2 (OAT2-tv2) containing 548 amino acids was amplified from a construct obtained from Origene; host or cells: CHO, HEK and MDCK Flp-In cells; conditions: HEK- and MDCK-OAT2-tv2 cells, penciclovir 0.1/0.5 μM, para-aminohippurate 8 nM, estrone-3-sulfate 10 nM, glutarate 18 μM, 5 min
T2 sequence (Q9Y694 1-548): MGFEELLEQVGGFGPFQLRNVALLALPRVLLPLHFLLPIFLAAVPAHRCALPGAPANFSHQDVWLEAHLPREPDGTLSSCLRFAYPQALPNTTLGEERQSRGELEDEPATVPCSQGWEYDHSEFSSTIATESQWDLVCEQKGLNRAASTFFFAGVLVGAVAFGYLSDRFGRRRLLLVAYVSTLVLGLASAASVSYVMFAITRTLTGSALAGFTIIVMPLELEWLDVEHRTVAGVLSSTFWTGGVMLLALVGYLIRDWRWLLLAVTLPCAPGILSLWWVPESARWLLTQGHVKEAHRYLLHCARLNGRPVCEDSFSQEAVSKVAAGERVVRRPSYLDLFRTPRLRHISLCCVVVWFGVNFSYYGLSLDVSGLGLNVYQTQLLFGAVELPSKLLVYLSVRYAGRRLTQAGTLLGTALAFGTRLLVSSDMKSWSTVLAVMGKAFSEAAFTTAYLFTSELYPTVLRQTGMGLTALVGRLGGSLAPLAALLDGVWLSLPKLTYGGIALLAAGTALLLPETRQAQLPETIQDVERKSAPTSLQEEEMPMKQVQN
Description: [^3H]Penciclovir served as the probe OAT2 substrate. […] Protein content was determined using the bicinchoninic acid method.
Uptake was conducted for 5 min at room temperature.

OAT2-tv2 [6] = target: T2, OAT2-tv2; parameters: method as in Kobayashi et al., 2005a; conditions: OAT2-tv2 in Xenopus oocytes pre-loaded with 5 mM compound; ref Kobayashi et al., 2005a; cited from earlier work
CHO parental cells = assay: Cellular accumulation of radiolabeled compounds in CHO parental cells; format: cell-based, Chinese hamster; conditions: [3H]dehydroepiandrosterone sulfate 12 nM, [3H]paclitaxel 22 nM, n = 3
[7] = IC50, inhibition of [3H]penciclovir uptake by CHO-OAT2-tv1 cells
[8] = inhibition of [3H]penciclovir uptake by CHO-OAT2-tv1 cells, read-out: IC50

Row | SMILES | % Inhibition (OAT2-tv1 [1]) [%] | IC50 (OAT2-tv1 [1]; [8]) | further results
1 | Oc1ncnc2[nH]ncc12 [Allopurinol] | 95 | – | inhibition of uric acid transport (OAT2-tv3): did not inhibit uric acid transport; IC50 (OAT2-tv1 [1]; [7]): 70 µM and 70.1 µM; substrate of OAT2-tv1 (OAT2-tv1 [2]; ref Cropp et al., 2008): substrate
2 | O=C(O)C[C@@H](O)C(=O)O [D-malate] | – | – | cis-inhibition of penciclovir uptake (OAT2-tv1 [1]): none of the Kreb’s cycle intermediates tested, including succinate and fumarate, cis-inhibited penciclovir uptake
3 | C[C@]12CC[C@@H]3c4ccc(OS(=O)(=O)O)cc4CC[C@H]3[C@@H]1CCC2=O [Estrone Sulfate] | 95 | 36.1 ± 3.9 µM | uptake compared to respective parental cells (OAT2-tv1 [4]; 5 min): not different than uptake into the respective parental cells; uptake compared to respective parental cells (OAT2-tv2 [5]): not different than uptake into the respective parental cells
4 | CC[N+](CC)(CC)CC [Tetraethylammonium] | 42 | 54.3 ± 33 µM | –
5 | CCCCC[N+](CCCCC)(CCCCC)CCCCC [Tetrapentylammonium] | 49 | – | IC50 (OAT2-tv1 [1]; [7]): 279 ± 142 µM
6 | CCCCC(=O)N(Cc1ccc(-c2ccccc2-c2nnn[nH]2)cc1)[C@H](C(=O)O)C(C)C [Valsartan] | 86 | 127 ± 29 µM | –
7 | O=C(O)/C=C/C(=O)O [fumarate] | – | – | stimulation of estrone-3-sulfate uptake by pre-loading (OAT2-tv2 [6]): 1.7 fold; cis-inhibition of penciclovir uptake (OAT2-tv1 [1]): none of the Kreb’s cycle intermediates tested, including succinate and fumarate, cis-inhibited penciclovir uptake
8 | Nc1nc(O)c2ncn(COC(CO)CO)c2n1 [ganciclovir] | – | – | substrate of OAT2-tv1 (OAT2-tv1 [2]; ref Cheng et al., 2012): clearly substrates of OAT2-tv1
9 | O=C(O)CCCC(=O)O [glutarate] | – | – | uptake compared to respective parental cells (OAT2-tv1 [4]; 5 min): not different than uptake into the respective parental cells; uptake compared to respective parental cells (OAT2-tv2 [5]): not different than uptake into the respective parental cells
10 | O=C(O)CC(=O)C(=O)O [oxaloacetate] | – | – | cis-inhibition of penciclovir uptake (OAT2-tv1 [1]): none of the Kreb’s cycle intermediates tested, including succinate and fumarate, cis-inhibited penciclovir uptake
11 | CC(=O)O[C@H]1C(=O)[C@@]2(C)[C@H]([C@H](OC(=O)c3ccccc3)[C@]3(O)C[C@H](OC(=O)[C@H](O)[C@@H](NC(=O)c4ccccc4)c4ccccc4)C(C)=C1C3(C)C)[C@]1(OC(C)=O)CO[C@@H]1C[C@@H]2O [paclitaxel] | – | – | cellular accumulation (CHO parental cells): 89 ± 3.8 fmoles ⋅ mg protein^-1 ⋅ min^-1; cellular accumulation (OAT2-tv1 [4]; 5 min, 22 nM): 90 ± 5.1 fmoles ⋅ mg protein^-1 ⋅ min^-1; mediated transport by OAT2-tv1 (OAT2-tv1 [4]; expressed in CHO cells): unable to show mediated transport

More lines, main results first:

Row | % Inhibition (OAT2-tv1 [1]) [%] | IC50 (OAT2-tv1 [1]; [8]) | SMILES | further results
12 | 53 | – | Nc1ccn(C[C@@H](CO)OCP(=O)(O)O)c(=O)n1 [Cidofovir] | –
13 | 95 | 57 µM and 57.2 µM | CN/C(=N/CCSCc1nc[nH]c1C)NC#N [Cimetidine] | inhibition of OAT2 ([3]; ref Khamdang et al., 2004): no inhibition
14 | 65 | 12 ± 5.4 µM | CC[C@H]1OC(=O)[C@H](C)[C@@H](O[C@H]2C[C@@](C)(OC)[C@@H](O)[C@H](C)O2)[C@H](C)[C@@H](O[C@@H]2O[C@H](C)C[C@H](N(C)C)[C@H]2O)[C@](C)(O)C[C@@H](C)C(=O)[C@H](C)[C@@H](O)[C@]1(C)O [Erythromycin] | –
15 | 90 | – | NS(=O)(=O)c1cc(C(=O)O)c(NCc2ccco2)cc1Cl [Furosemide] | IC50 ([3]; ref Hasannejad et al., 2004): 603 µM
16 | 99 | – | COc1ccc2c(c1)c(CC(=O)O)c(C)n2C(=O)c1ccc(Cl)cc1 [Indomethacin] | IC50 ([3]; ref Khamdang et al., 2002): 64.1 µM
17 | 76 | – | CN(Cc1cnc2nc(N)nc(N)c2n1)c1ccc(C(=O)N[C@@H](CCC(=O)O)C(=O)O)cc1 [Methotrexate] | –
18 | 85 | 78.4 ± 8.2 µM | Nc1nc2c(ncn2CCC(CO)CO)c(=O)[nH]1 [Penciclovir] | uptake of penciclovir, fold higher compared to parental cells (OAT2-tv1 [4]; CHO-OAT2-tv1 cells, [3H]penciclovir 0.1 μM, 5 min): 21 fold; uptake of penciclovir, fold higher compared to parental cells (OAT2-tv1 [4]; HEK-OAT2-tv1 cells, [3H]penciclovir 0.5 μM, 5 min): 39 fold; uptake of penciclovir, fold higher compared to parental cells (OAT2-tv1 [4]; MDCK-OAT2-tv1 cells, [3H]penciclovir 0.1 μM, 5 min): 5 fold; uptake compared to respective parental cells (OAT2-tv2 [5]): not different from uptake into the respective parental cells; substrate of OAT2-tv1 (OAT2-tv1 [2]; ref Cheng et al., 2012): clearly substrates of OAT2-tv1
19 | 64 | – | CCCN(CCC)S(=O)(=O)c1ccc(C(=O)O)cc1 [Probenecid] | –
20 | 96 | 26.8 ± 2.4 µM | CCCCC[C@H](O)/C=C/[C@H]1[C@H](O)CC(=O)[C@@H]1C/C=C\CCCC(=O)O [Prostaglandin E2] | –
21 | 99 | 30 ± 3.6 µM | CCOc1cc(CC(=O)N[C@@H](CC(C)C)c2ccccc2N2CCCCC2)ccc1C(=O)O [Repaglinide] | –
22 | 96 | 17.1 ± 1.3 µM | CCCc1nc2c(C)cc(-c3nc4ccccc4n3C)cc2n1Cc1ccc(-c2ccccc2C(=O)O)cc1 [Telmisartan] | –
23 | 99 | 210 µM | Nc1ccc(C(=O)NCC(=O)O)cc1 [para-aminohippurate] | uptake compared to respective parental cells (OAT2-tv1 [4]; 5 min): not different than uptake into the respective parental cells; uptake compared to respective parental cells (OAT2-tv2 [5]): not different than uptake into the respective parental cells; uptake by HEK-OAT2-tv1 cells (OAT2-tv1 [2]; ref Cropp et al., 2008): failed to observe appreciable uptake
